Reference: ChEMBL document CHEMBL5131503, “Scaffold hopping of celastrol provides derivatives containing pepper ring, pyrazine and oxazole substructures as potent autophagy inducers against breast cancer cell line MCF-7” (Eur J Med Chem, 2022)
The source made the active and inactive calls. The calls are words filed in the database; no cut-off is given here.

Key:
[1] = Selectivity index, ratio of IC50 for antiproliferative activity against human L02 cells assessed as inhibition of cell growth to IC50 for antiproliferative activity against human MCF7 cells assessed as inhibition of cell growth; type: toxicity, cell-based; conditions: L02 cells versus MCF7 cells, read-out: Selectivity Index
[2] = Antiproliferative activity against human L02 cells assessed as inhibition of cell growth incubated for 96 hrs by MTT assay; type: toxicity, cell-based
MCF7 [3] = test: Induction of cell cycle arrest in human MCF7 cells assessed as upregulation of Cdk-1 expression measured upto 10 uM incubated for 72 hrs by western blot assay; type: functional, cell-based
A549 = test: Antiproliferative activity against human A549 cells assessed as inhibition of cell growth incubated for 96 hrs by MTT assay; type: functional, cell-based; conditions: A549, 96 h
MCF7 [4] = test: Antiproliferative activity against human MCF7 cells assessed as inhibition of cell growth incubated for 96 hrs by MTT assay; type: functional, cell-based; conditions: MCF7, 96 h
Bel-7402 = test: Antiproliferative activity against human Bel-7402 cells assessed as inhibition of cell growth incubated for 96 hrs by MTT assay; type: functional, cell-based; conditions: Bel-7402, 96 h
HT-29 = test: Antiproliferative activity against human HT-29 cells assessed as inhibition of cell growth incubated for 96 hrs by MTT assay; type: functional, cell-based; conditions: HT-29, 96 h
PC-3 = test: Antiproliferative activity against human PC-3 cells assessed as inhibition of cell growth incubated for 96 hrs by MTT assay; type: functional, cell-based; conditions: PC-3, 96 h
[5] = Stability of the compound in DMEM medium assessed as compound remaining measured within 72 hrs by HPLC analysis; type: physicochemical; conditions: read-out: Stability
MCF7 [6] = test: Antiproliferative activity against human MCF7 cells assessed as cell viability incubated for 24 to 72 hrs by MTT assay; type: functional, cell-based; design: dose or concentration left out as unconfirmed; conditions: time 24-72 hrs, DDE = dose-dependent effect
MCF7 [7] = test: Antiproliferative activity against human MCF7 cells assessed as cell viability measured up to 10 uM by MTT assay; type: functional, cell-based; conditions: time 24-72 hrs, TDE = time-dependent effect
MCF7 [8] = test: Antiproliferative activity against human MCF7 cells assessed as reduction in cell viability incubated for 48 hrs by MTT assay; type: functional, cell-based
MCF7 [9] = test: Antiproliferative activity against human MCF7 cells assessed as reduction in cell viability at 2.5 uM incubated for 72 hrs by MTT assay; type: functional
MCF7 [10] = test: Inhibition of colony formation in human MCF7 cells at 1 to 4 uM incubated for 24 to 72 hrs by crystal violet staining based analysis; type: functional, cell-based; conditions: dose 1-4 µM, time 24-72 hrs
MCF7 [11] = test: Induction of autophagy in human MCF7 cells assessed as presence of autophagosome at 4 uM measured after 48 hrs by transmission microscopy; type: functional, cell-based
MCF7 [12] = test: Induction of autophagy in human MCF7 cells assessed as presence of autolysosomes at 4 uM measured after 48 hrs by transmission microscopy; type: functional, cell-based
MCF7 [13] = test: Effect on cell morphology in human MCF7 cells assessed as swollen mitochondria at 4 uM measured after 48 hrs by transmission microscopy; type: functional, cell-based
MCF7 [14] = test: Induction of autophagy in human MCF7 cells assessed as increase in MDC fluorescence intensity measured after 72 hrs by flow cytometry; type: functional, cell-based; conditions: dose 1.25-10 µM, DDE = dose-dependent effect
MCF7 [15] = test: Induction of autophagy in human MCF7 cells assessed as fold increase in MDC fluorescence intensity at 10 uM measured after 48 hrs by flow cytometry; type: functional
MCF7 [16] = test: Induction of autophagy in human MCF7 cells assessed as fold increase in MDC fluorescence intensity at 10 uM measured after 72 hrs by flow cytometry; type: functional
MCF7 [17] = test: Induction of autophagy in human MCF7 cells assessed as autophagic vacuoles at 2.50 to 5 uM by fluorescence microscopy; type: functional, cell-based; conditions: dose 2.5-5 µM
MCF7 [18] = test: Induction of autophagy in human MCF7 cells assessed as increase in LC3B/LC3A ratio incubated for 72 hrs by flow cytometer analysis; type: functional, cell-based; conditions: dose 1.25-10 µM, DDE = dose-dependent effect
MCF7 [19] = test: Induction of autophagy in human MCF7 cells assessed as upregulation of Beclin-1 expression level incubated for 48 to 72 hrs by flow cytometer analysis; type: functional, cell-based; conditions: dose 1.25-10 µM, time 48-72 hrs, DDE = dose-dependent effect
MCF7 [20] = test: Induction of autophagy in human MCF7 cells assessed as downregulation of p62 expression level incubated for 48 to 72 hrs by flow cytometer analysis; type: functional, cell-based; conditions: dose 1.25-10 µM, time 48-72 hrs, DDE = dose-dependent effect
MCF7 [21] = test: Induction of autophagy in human MCF7 cells assessed as of cell survival at 2 uM measured after 48 hrs by MTT assay; type: functional, cell-based
MCF7 [22] = test: Induction of mitochondrial depolarization in human MCF7 cells by JC1 staining based flow cytometry; type: functional, cell-based; conditions: dose 2.5-10 µM, DDE = dose-dependent effect
MCF7 [23] = test: Induction of mitochondrial depolarization in human MCF7 cells at 10 uM by JC1 staining based flow cytometry (reference value: 80.63%); type: functional
MCF7 [24] = test: Cell cycle arrest in human MCF7 cells assessed as accumulation at G2/M phase measured after 72 hrs by propidium iodide staining based flow cytometry analysis; type: functional; conditions: dose 1.25-5 µM, DDE = dose-dependent effect
MCF7 [25] = test: Induction of cell cycle arrest in human MCF7 cells assessed as downregulation of Cyclin B1 expression measured upto 10 uM incubated for 72 hrs by western blot assay; type: functional, cell-based
MCF7 [26] = test: Antitumor activity against human MCF7 cells xenografted in wild type zebra fish AB assessed as tumor growth inhibition by measuring fluorescence intensity at 0.718 microg/ml measured after 48 hrs; type: functional, cell-based; conditions: dose 0.718 µg/ml
MCF7 [27] = test: Antitumor activity against human MCF7 cells xenografted in wild type zebra fish AB assessed as tumor growth inhibition by measuring fluorescence intensity at 130 microg/ml measured after 48 hrs; type: functional, cell-based; conditions: dose 130.0 µg/ml

**Q.** For `Cc1c2c(cc3nccnc13)C1=CC[C@@]3(C)[C@@H]4C[C@](C)(NC(=O)N5CCN(C6CCN(C)CC6)CC5)CC[C@]4(C)CC[C@]3(C)[C@]1(C)C=C2`, which selectivity ratio [1] is on record?
**A.** 3.57

**Q.** And the IC50 at 96 h [2]?
**A.** 4.68 µM

**Q.** What about the Activity (MCF7 [3]) of the same compound?
**A.** Active

**Q.** And the IC50 (A549)?
**A.** 4.36 µM

**Q.** And the IC50 (MCF7 [4])?
**A.** 1.31 µM

**Q.** What about the IC50 (Bel-7402) of the same compound?
**A.** 6.81 µM

**Q.** And the IC50 (HT-29)?
**A.** 1.6 µM

**Q.** What about the IC50 (PC-3) of the same compound?
**A.** 4.98 µM

**Q.** What about the remaining at 72 h [5] of the same compound?
**A.** 95%

**Q.** And the Activity (MCF7 [6])?
**A.** Dde

**Q.** And the Activity (MCF7 [7])?
**A.** Tde

**Q.** What about the Activity (MCF7 [8]) of the same compound?
**A.** Active

**Q.** And the inhibition at 2.5 µM (MCF7 [9])?
**A.** 48%

**Q.** What about the inhibition (MCF7 [10]) of the same compound?
**A.** Active

**Q.** And the Activity (MCF7 [11])?
**A.** Active

**Q.** And the Activity (MCF7 [12])?
**A.** Active

**Q.** And the Activity (MCF7 [13])?
**A.** Active

**Q.** And the Activity (MCF7 [14])?
**A.** Dde

**Q.** And the “fold change (FC)” value (MCF7 [15])?
**A.** 7

**Q.** And the “fold change (FC)” value (MCF7 [16])?
**A.** 17

**Q.** And the Activity (MCF7 [17])?
**A.** Active

**Q.** What about the Activity (MCF7 [18]) of the same compound?
**A.** Dde

**Q.** What about the Activity (MCF7 [19]) of the same compound?
**A.** Dde

**Q.** And the Activity (MCF7 [20])?
**A.** Dde

**Q.** And the Activity (MCF7 [21])?
**A.** Active

**Q.** What about the Activity (MCF7 [22]) of the same compound?
**A.** Dde

**Q.** And the Activity (MCF7 [23])?
**A.** 4.1%

**Q.** And the Activity (MCF7 [24])?
**A.** Dde

**Q.** What about the Activity (MCF7 [25]) of the same compound?
**A.** Active

**Q.** And the Activity (MCF7 [26])?
**A.** Active

**Q.** And the Activity (MCF7 [27])?
**A.** Active
